# B1: Lutetium-177 [^177Lu]-lilotomab satetraxetan (conjugate, chains of the INN, looked up)
# VH: EIQLQQSGPELVKPGASVKVSCKASGYSFTDYNMYWVKQSHGKSLEWIGYIDPYNGDTTYNQKFKGKATLTVDKSSSTAFIHLNSLTSEDSAVYYCARSPYGHYAMDYWGQGTSVTVSS
# VL: DIVMTQSHKLLSTSVGDRVSITCKASQDVSTAVDWYQQKPGQSPKLLINWASTRHTGVPDRFTGSGSGTDYTLTISSMQAEDLALYYCRQHYSTPFTFGSGTKLEIK
# modifications: 177Lu satetraxetan chelator conjugate
# Tests used:
# U-2932 cells = experiment: Real Time Glo viability screen and validation, Betalutin with PARP or cell cycle kinase inhibitors (Examples 4, 7); type: cell-based, human
# Protocol: (§1) DLBCL cell lines U2932 and RIVA were maintained in RPMI 1640-GlutaMAX medium (Gibco) supplemented with 15% fetal bovine serum (Biowest) and 1% penicillin-streptomycin (Gibco) at 37° C. in a humidified atmosphere containing 5% CO2. Cells were split twice a week 1:7 and diluted 2-4 days before start of the experiment, to ensure they are in exponential growth at the beginning of the experiment.
# (§2) Cells were treated in 6-well plates without shaking for 18 h with Betalutin at a final concentration of 1 μg/ml for U2932 and 0.5 μg/ml for RIVA. After treatment, PBS was added to the cells, and the cells pelleted. Cells were first resuspended in 1 ml PBS, then washed twice in PBS and finally diluted in growth medium to a final concentration of 2.5*10^6 cells/ml.
# (§3) Cells density measurements were performed the day before seeding. Based on these measurements cells were seeded in 384-well plates at a density of 3000 cells per well in a culturing volume of 25 μl (resulting in start titers: 120 000 cells/ml) using a robot. For measuring viability using Real Time Glo (Promega, WI, USA), the Cell Viability Substrate and NanoLuc® Enzyme were diluted 1:500 in growth medium, and 25 μL of diluted reagents dispensed in each well by a robot. All reagents were equilibrated to 37° C. Cells were incubated with the reaction mix for 1 h at 37° C. before the first measurement of luminescence. Measurements were repeated as often as required within 72 h after adding the reagents. A Tecan SPARK 10M plate reader (Tecan, SUI) was used to measure luminescence, with the integration time set to 1 sec.
# (§4) The screen was performed in 384-well plate with selected PARP inhibitors (stock solutions 10 mM in DMSO) acquired from SelleckChem (Selleckchem, TX, USA). To include no-drug controls, the drug panel (Table 6) was divided on two plates. Due to previous observations of cells growing poorly in wells located at the edges of the plates, the two outer most rows and columns were not used. As previously mentioned three different drug concentrations were used in the screen, 10 nM and 1 μM for U2932 and 10 and 100 nM for RIVA.
# (§5) Candidate hits were identified using the Bliss Independence test for synergy. The effect of each drug alone at each concentration was calculated as the fraction of dead cells as compared to control cells Fa=(1−(RLUdrug/avgRLUcontrol), a similar calculation was performed for the effect of Betalutin alone Fb=(1−(avgRLUBetalutin/avgRLUcontrol). Through the following equation we found the expected additive effect of the combination of drug+Betalutin: Expected effect (E)Fab=(Fa+Fb−Fa*Fb). We subtracted this expected effect from the measured effect (M)Fab=(1−(RLUDrug+Betalutin/avgRLUcontrol) to get a value (Diff)Fab representing how the measured effect differed from the expected additive effect of the combination. This value was normalized to the survival fraction of drug alone: (Diff)Fab#=(Diff)Fab/(1−Fa). Furthermore, to get a measure of how big the well-to-well variation was, we calculated the standard deviation for the effect of Betalutin alone in the 48 control wells on each plate: (STDEV)Fb=(RLUBetalutin/RLUcontrol)−(averageRLUBetalutin/averageRLUcontrol). Drugs with a value (Diff)Fab#two times higher than the standard deviation of Betalutin treated controls, (STDEV)Fb, were scored as hits.
# as §3, with “Measurements were repeated as often as required within 72 h after adding the reagents. A Tecan SPARK 10M plate reader (Tecan, SUI) was used to measure luminescence, with the integration time set to 1 sec.” left out
# RIVA cells = experiment: Real Time Glo viability screen, Betalutin with PARP or cell cycle kinase inhibitors (Examples 4, 7); type: cell-based, human; settings: RIVA
# Protocol: as §1, §2, §3, §4, §5
# as §3, with “Measurements were repeated as often as required within 72 h after adding the reagents. A Tecan SPARK 10M plate reader (Tecan, SUI) was used to measure luminescence, with the integration time set to 1 sec.” left out
# DOHH2 cells = experiment: Cell cycle analysis (PI, Muse flow cytometer); type: cell-based, human
# Protocol: (§6) Cells were harvested at day 0, 2 h, 18 h, 1 d, 2 d, 3 d, of RIT then fixed in 70% ethanol at −20° C. for 3 hours and stained with Cell Cycle kit (with PI) reagent from Merck Millipore in the dark for 30 min at room temperature before analysis using a Muse® flow cytometer. The percentage of cells in G0/G1, S and G2/M phases was then calculated (mean of three experiments in triplicate).
# (§7) At different times after start of incubation, proteins were extracted to measure the CDK1 phosphorylation levels, in parallel, proliferation was determined and at 18 h and 24 h after start of incubation, the percentage of cells in G2/M was assessed (experiments were performed three time except the cell cycle analysis).
# (§8) Cells were harvested at 0 h, 2 h, 18 h, 1 d, 2 d, 3 d, and fixed in 70% ethanol at −20° C. for at least 3 h. After staining with the Muse® Cell Cycle Assay Kit (Merck Millipore, Molsheim, France) using propidium iodide in the dark at room temperature for 30 min, cell cycle distribution was analyzed using a Muse® flow cytometer. The percentage of cells in the G0/G1, S and G2/M was calculated (mean of three experiments in triplicate) and the effect of WEE-1 and MYT-1 kinase inhibitors on the cell cycle was assessed.
# Ramos cells = experiment: Cell cycle analysis (PI, Muse flow cytometer); type: cell-based, human
# Protocol: as §6, §7, §8
# Rec-1 cells = experiment: Cell cycle analysis (PI, Muse flow cytometer); type: cell-based, human
# Protocol: as §6, §7, §8
# Ramos tumor xenografts = experiment: Treatment of mice with tumor xenografts; type: in vivo, athymic mice; settings: Ramos xenograft
# From the text: Each treatment group included 6-9 mice.
# OCI-Ly8 tumor xenografts = experiment: Treatment of mice with tumor xenografts
molecule,measurement,setting,value
Nc1nc(Nc2ccc(S(N)(=O)=O)cc2)nn1C(=O)c1c(F)cccc1F [JNJ-7706621],inhibition at 1 µM,"U-2932 cells; Homo sapiens, U2932, 120 h, U-2932, drug 1 μM, five days into treatment, read-out: Growth inhibition, drug alone",~40%
same,inhibition at 0.64 µM,"U-2932 cells; Homo sapiens, U2932, U-2932, drug 640 nM, read-out: Growth inhibition, drug with Betalutin pre-treatment",~80%
same,"Growth inhibitory effect, drug alone","U-2932 cells; U-2932, drug 10 nM",no growth inhibitory effect
same,Combined growth inhibition with Betalutin pre-treatment,"U-2932 cells; U-2932, drug 1 μM + Betalutin",more than 60%
same,Synergy by combination index,"U-2932 cells; U-2932, drug 80-1280 nM with 0.5, 1 or 2 μg/ml Betalutin, day 5",Synergy was found for all tested combinations
same,"Synergy by combination index, confirmation experiments","U-2932 cells; U-2932, drug 100-5000 nM with Betalutin 0.5-5 μg/ml, day 5",observed for all but two combinations
same,"Growth impairment, drug alone","U-2932 cells; U-2932, highest tested dose 1280 nM",30%
same,"BLISS analysis, combination with Betalutin versus expected additive effect","U-2932 cells; U-2932, significant = more than twice the SD of Betalutin alone",significantly greater than the expected additive effect
same,"Growth inhibitory effect, drug alone",RIVA cells; drug 100 nM,no growth inhibitory effect
C=CCn1c(=O)c2cnc(Nc3ccc(N4CCN(C)CC4)cc3)nc2n1-c1cccc(C(C)(C)O)n1 [MK-1775],"Proportion of cells in G2/M, inhibitor combined with ^177Lu-lilotomab","DOHH2 cells; DOHH2, 1 μM inhibitor + ^177Lu-lilotomab, versus ^177Lu-lilotomab alone or untreated",reduction of the fraction of G2/M cells
same,"Proportion of cells in G2/M, inhibitor combined with ^177Lu-lilotomab","Ramos cells; 1 μM inhibitor + ^177Lu-lilotomab, versus ^177Lu-lilotomab alone or untreated",reduction of the fraction of G2/M cells
same,"Proportion of cells in G2/M, inhibitor combined with ^177Lu-lilotomab","Rec-1 cells; Rec-1, 1 μM inhibitor + ^177Lu-lilotomab, versus ^177Lu-lilotomab alone or untreated",reduction of the fraction of G2/M cells
same,Median survival,"Ramos tumor xenografts; 250 MBq/kg ^177Lu-lilotomab + 30 mg/kg MK-1775 twice a day, day 1 to 5",47 days
same,Tumor growth versus 250 MBq/kg ^177Lu-lilotomab alone,"Ramos tumor xenografts; 250 MBq/kg ^177Lu-lilotomab + MK-1775, p=0.001",significantly delayed tumor growth
same,Tumor growth delay versus ^177Lu-lilotomab alone,"OCI-Ly8 tumor xenografts; 250 MBq/kg ^177Lu-lilotomab + MK-1775, p=0.05",significantly better
same,Efficacy of combination versus 500 MBq/kg ^177Lu-lilotomab alone,"OCI-Ly8 tumor xenografts; 250 MBq/kg ^177Lu-lilotomab + MK-1775, p=0.7070",as efficient as 500 MBq/kg
same,Therapeutic efficacy compared with control,OCI-Ly8 tumor xenografts; single agent,no therapeutic efficacy
B1,Proportion of cells showing a G2/M cell cycle arrest,"DOHH2 cells; DOHH2, 6 MBq/mL, at 24 h",45±11%
same,Proportion of cells showing a G2/M cell cycle arrest,"Ramos cells; 6 MBq/mL, at 24 h",64±16%
same,Proportion of cells showing a G2/M cell cycle arrest,"Rec-1 cells; Rec-1, 6 MBq/mL, at 24 h",44±11%
same,Proliferation relative to non-treated cells,"U-2932 cells; U-2932, 1 μg/ml [600 MBq/mg]",more than 80%
same,"Inhibition of proliferation capacity, single treatment","U-2932 cells; U-2932, Betalutin 1 μg/ml, days 5 and 6",less than 10%
same,Proliferation potential compared to untreated cells,"U-2932 cells; U-2932, validation screen, highest Betalutin dose (2 μg/ml)",about 70%
same,Proliferation relative to non-treated cells,"RIVA cells; 0.5 μg/ml [600 MBq/mg], days 4-6",more than 40%
same,"Inhibition of proliferation capacity, single treatment","RIVA cells; Betalutin 0.5 μg/ml, days 5 and 6",about 50%
same,Median survival,Ramos tumor xenografts; 250 MBq/kg ^177Lu-lilotomab alone,40 days
same,Median survival,"OCI-Ly8 tumor xenografts; 250 MBq/kg, p=0.0062",significantly improved
same,Tumor growth delay,"OCI-Ly8 tumor xenografts; 250 MBq/kg, p=0.015",significantly improved
